We go through three molecules from publication PMC4935531 (Journal of Acquired Immune Deficiency Syndromes (1999), 2016).

Molecules are shown by their SMILES. Where two headings read alike, the source gives them in different places.

The format of data set [1] is in vivo, human. The following applies: for Metformin t(1/2) with vs without co-administration of dolutegravir: dolutegravir 50 mg q24h or q12h.
Data set [2] can be described thus: Safety monitoring: drug-related adverse events in healthy subjects. The format is in vivo, human. Conditions: metformin 500 mg q12h alone or with dolutegravir 50 mg q24h or q12h.
The conditions of data set [3]: cited from earlier work.
The next data set concerns the target T1, human PMAT (Homo sapiens, UniProt Q7RTT9).
T1 sequence (Q7RTT9 1-530): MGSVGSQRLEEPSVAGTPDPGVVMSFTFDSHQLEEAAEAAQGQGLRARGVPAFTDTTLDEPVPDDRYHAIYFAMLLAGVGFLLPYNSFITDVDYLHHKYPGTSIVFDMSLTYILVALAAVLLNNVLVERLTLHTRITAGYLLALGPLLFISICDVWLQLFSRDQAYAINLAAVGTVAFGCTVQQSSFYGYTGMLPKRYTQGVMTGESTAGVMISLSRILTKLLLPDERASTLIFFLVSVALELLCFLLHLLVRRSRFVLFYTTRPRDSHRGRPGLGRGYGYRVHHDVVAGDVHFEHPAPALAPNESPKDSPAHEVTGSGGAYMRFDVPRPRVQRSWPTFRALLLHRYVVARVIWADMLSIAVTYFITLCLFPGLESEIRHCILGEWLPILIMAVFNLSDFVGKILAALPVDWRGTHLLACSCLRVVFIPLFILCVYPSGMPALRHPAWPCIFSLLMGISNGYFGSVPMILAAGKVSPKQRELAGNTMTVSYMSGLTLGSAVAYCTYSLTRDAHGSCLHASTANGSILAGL
Kind of data set: Inhibition of probe substrate uptake by PMAT in transfected MDCK-II cells. The format is in vitro ADME. Conditions: dolutegravir ≤100 μM; 10 µM [14C]metformin.

Another data set has as its target T2, human OCT3 (Homo sapiens, UniProt O75751).
T2 sequence (O75751 1-556): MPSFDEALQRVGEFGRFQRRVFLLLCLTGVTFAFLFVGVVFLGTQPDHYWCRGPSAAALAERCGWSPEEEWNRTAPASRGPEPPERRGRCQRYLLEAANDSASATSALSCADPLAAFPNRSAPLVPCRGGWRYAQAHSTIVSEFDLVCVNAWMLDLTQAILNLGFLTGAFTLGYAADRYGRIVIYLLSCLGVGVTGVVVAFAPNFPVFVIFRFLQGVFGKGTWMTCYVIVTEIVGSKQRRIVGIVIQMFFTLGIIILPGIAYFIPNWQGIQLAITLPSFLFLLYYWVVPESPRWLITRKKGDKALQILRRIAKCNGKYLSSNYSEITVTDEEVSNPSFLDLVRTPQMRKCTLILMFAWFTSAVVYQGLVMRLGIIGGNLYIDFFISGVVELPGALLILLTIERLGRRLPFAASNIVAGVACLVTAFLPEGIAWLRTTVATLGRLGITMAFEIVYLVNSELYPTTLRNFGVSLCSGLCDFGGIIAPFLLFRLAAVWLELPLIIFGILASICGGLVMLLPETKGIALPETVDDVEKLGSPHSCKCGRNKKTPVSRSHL
Kind of data set: Inhibition of probe substrate uptake by OCT3 in transfected MDCK-II cells. The format is in vitro ADME. The following applies: dolutegravir ≤10 μM; 10 µM [14C]metformin.

A further data set has as its system Caco-2 cell monolayers. Kind of data set: Cellular uptake of [14C]metformin in Caco-2 cell monolayers. The following applies: dolutegravir 0.3-100 µM. It is filed as in vitro ADME.
The test system of data set [4] is OCT2. The following applies: cited from earlier work.
The next data set has as its system OCT1. Conditions: at 10 μM; cited from earlier work.
The test system of data set [5] is OCT2. The following applies: cited from earlier work. The source holds these as a separate data set.
[6] abbreviates: co-administration of cimetidine.

For the molecule `CN(C)C(=N)N=C(N)N` [Metformin], the “Decrease in metformin CL/F” value was 59% in [1] (co-administration of dolutegravir 50 mg q12h) and 44% in data set [1] (co-administration of dolutegravir 50 mg q24h). The “Metformin t(1/2) with vs without co-administration of dolutegravir” value is given as “unchanged” in data set [1] and “similar” in [1] (listed as metformin). Besides, the Tolerability result in [2] is on record as “well tolerated”. The “Fraction of drug excreted unchanged in the urine” value in data set [3] (within 24 hours, oral and intravenous administration) was 90%.
As for `C[C@@H]1CCO[C@H]2Cn3cc(C(=O)NCc4ccc(F)cc4F)c(=O)c(O)c3C(=O)N12` [Dolutegravir], the “Inhibition of [14C]metformin uptake by PMAT” value at human PMAT is “no inhibition”. Also, the “Inhibition of [14C]metformin transport by OCT3” value at human OCT3 is given as “no inhibition”. Also, the “Effect on cellular uptake of metformin in the Caco-2 intestinal cell line” value in the data set on Caco-2 cell monolayers is “unaffected”. The IC50 in the data set with OCT2 [4] (read-out: IC50 for OCT2) was 1900 nM; in the data set on OCT2 [4] (read-out: OCT2 inhibitory potency, tetraethylammonium as the substrate) it was 66 nM. Moreover, the “Inhibition of OCT1” value in the data set on OCT1 is 22%. Besides, the Dolutegravir free fraction with OCT2 [5] was no less than 1.1%. Further, in the data set on OCT2 [5] (read-out: Dolutegravir Cmax, twice daily dosing), the Cmax (usually the maximum level reached in the sampled fluid or tissue) is 13 µM.
For the molecule `CN/C(=N/CCSCc1nc[nH]c1C)NC#N` [Cimetidine], in data set [3] (setting [6]), the “Increase in metformin AUC” value was 40% and the “Increase in metformin peak concentration” value is on record as 60%.
